Laboratory results reported in patent publication US4603125A, “Substituted o-phenylenediamine acridine compounds having antitumor activity” (Development Finance Corporation of New Zealand, priority 1982, dated 1986).

How the values were obtained:
tumour = assay: antitumour activity in in vivo test systems (summary); settings: compared to unsubstituted AMSA and m-AMSA (for compound 1)
Text: The compounds of general formula (I) and particularly the examples listed in Tables I and II, have antitumor activity in in vivo test systems, as shown by the data of Tables III and IV.

Lewis lung carcinoma = Lewis lung carcinoma in vivo (increase in lifespan); settings: at OD; i.v. tumour, days 1, 5 and 9; >40% statistically significant
Text: LL. is the Lewis lung carcinoma.

[1] = Rm from reversed phase partition chromatography (lipophilic-hydrophilic balance)
Text: Rm=a measure of the compound's lipophilic-hydrophilic balance from reversed phase partition chromatography. Rm is linearly related to partition coefficients obtained in the 1-octanol/water system.

## CNc1cc(NS(C)(=O)=O)ccc1Nc1c2ccccc2nc2ccccc12 [Compound 1]
tumour
  potency and antitumour activity: increased potency and antitumour activity
Lewis lung carcinoma
  ILS (percentage increase in lifespan), Lewis lung: 85%
[1]
  chromatographic logP: 0.17
